Where only a bound is given, the exact number is not on record here.

The target in the first test is T1, Akt1 (Homo sapiens, UniProt P31749).
T1 construct: made in house; host or cells: Sf9 insect cells (baculovirus, pBlueBacHis2B)
T1 sequence (P31749 whole entry): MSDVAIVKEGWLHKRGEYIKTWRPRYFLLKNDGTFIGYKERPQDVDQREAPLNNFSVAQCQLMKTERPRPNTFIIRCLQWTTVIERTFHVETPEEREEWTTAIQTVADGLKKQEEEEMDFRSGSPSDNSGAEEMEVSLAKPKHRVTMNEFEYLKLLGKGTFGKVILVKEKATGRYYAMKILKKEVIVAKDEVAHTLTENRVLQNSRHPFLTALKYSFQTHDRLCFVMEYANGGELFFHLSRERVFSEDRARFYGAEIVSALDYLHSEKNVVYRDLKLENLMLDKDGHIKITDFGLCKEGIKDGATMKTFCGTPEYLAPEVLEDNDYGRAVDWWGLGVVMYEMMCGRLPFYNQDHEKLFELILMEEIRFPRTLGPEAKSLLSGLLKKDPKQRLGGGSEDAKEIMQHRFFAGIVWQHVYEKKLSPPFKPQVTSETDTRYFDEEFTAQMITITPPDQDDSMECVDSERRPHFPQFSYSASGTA
The test is described as follows: Akt1 kinase assay (33P phosphorylation of biotinylated peptide, Flash plates). The class given is biochemical. Conditions: read-out: IC50 (AKT1 inhibition). The source says: The assay described below measures the phosphorylation of a biotinylated peptide by active recombinant Akt1 and other kinase isoforms. The biotinylated peptide contains a consensus sequence derived from Akt substrate Gsk3 (Glycogen synthase kinase 3). The ^33P-labeled peptide substrate was captured by streptavidin-coated Flash plates.
Active recombinant Akt1 was expressed in Sf9 insect cells and purified as described by Kumar et al., Biochim. Biophys. Acta. Jun. 15, 2001, 1526(3), 257-268. Biotinylated peptide of the sequence Bio-ahx-RPRAASF was purchased from Syn Pep (Dublin, Calif., USA).
Cloning and Expression of Human Akt1 Sf9 Cells
Human Akt1 cDNA was amplified from a marathon-ready human lung cDNA library (Clonetech) using nested oligo primers as described below. The first round of amplification was carried out using the following primers; Akt1F1 ([…]) and Akt1R1 (TCCATC […]) and for the second round amplification, the primers of the following sequence were used; Akt1F2 (GGATCCTCGG […]) and AKT1R2 (GGTACCATCGTC […]). The PCR product was subcloned into pCRScript plasmid as a BamHI/KpnI fragment and the sequence of the cDNA was confirmed by DNA sequencing. This plasmid was used as a template for reamplification of Akt1 using appropriate primers for subcloning into pBlueBaHis2B into BamH1/EcoRI sites to generate an in frame fusion to (His)6 tag and an anti-Xpress antibody epitope tag at the N-terminus. This construct was sequenced to verify the junction sequences and used for generating a recombinant baculovirus. Growth of the recombinant virus, amplification and determination of viral titer were carried out according to the instructions from the manufacturer (InVitrogen, CA).
Purification of Akt1 from Sf9 Cells
Viral stocks were used to infect large scale Sf9 cells at a multiplicity of infection (MOI) of 2.5. Cells were maintained at 27° C. for 60 h and okadaic acid was added to the cultures to a concentration of 50 nM. Cells were harvested 4 h hours later by centrifugation at 1200 rpm for 30 min followed by freezing at −80° C. until further use. All purification steps were carried out at 4° C. Whole cell pellets were suspended in buffer A (20 mM sodium phosphate buffer pH 7.8, 500 mM NaCl, 1 mM sodium vanadate, 5 mM sodium fluoride, 40 mM β-glycerophosphate, 10 mM imidazole and protease inhibitor cocktail) and lysed using a microfluidizer. The cell extract was centrifuged at 16,000×g for 10 min to remove the debris and directly loaded onto Ni-NTA Superflow resin using a FPLC pump operated at 1 ml/min. The column was washed once with buffer A, once with wash buffer B (20 mM sodium phosphate pH 6.0, 1 mM sodium vanadate, 5 mM sodium fluoride and protease cocktail) and once with wash buffer B containing 0.05% Tween-20 followed by washing with buffer A until OD260 returned to basal level. Proteins were eluted with buffer A containing 200 mM imidazole. Fractions were analyzed by electrophoresis on 10% denaturing polyacrylamide gels and fractions containing 85% pure protein band at 60 KDa were pooled and dialyzed against buffer C (20 mM Tris-HCl pH 7.5, 0.5 mM EDTA,-2 mM DTT, 145 mM NaCl, 0.1 mM sodium vanadate, 5 mM sodium fluoride, 10 mM, β-glycerophosphate and 20% glycerol). Purified protein was stored as aliquots at −80° C. Protein concentrations were determined using BCA protein assay reagent A (Catalog #23228). To examine the identity of the proteins, 2 μg of purified protein was electrophoresed on SDS-polyacrylamide gels and stained with coomassie blue dye or transferred to nitrocellulose membrane and probed with anti-Akt and anti-phospho-specific Akt antibodies using enhanced chemiluminescence (ECL) reagent according to the protocol described by the manufacturer (Amersham).
The kinase assay was performed in 96 well plates at room temperature. Assay solutions and plates were preincubated at room temperature for 5 min. […]
As for `Clc1n[nH]c2ccc(-c3nncc(N4CCN[C@@H](Cc5ccccc5)C4)n3)cc12` [Compound 56, 5-[(S)-3-benzylpiperazin-1-yl]-3-(3-chloroindazol-5-yl)-[1,2,4]triazine], the IC50 amounted to 5.7 nM.

Still in this test, the particulars now being: read-out: IC50 rating (AKT1 inhibition).
With `Cc1n[nH]c2ccc(-c3nncc(N4CCN(C)[C@@H](Cc5ccccc5)C4)n3)cc12` [Compound 28, 5-[(S)-3-benzyl-4-methyl-piperazin-1-yl]-3-(3-methylindazol-5-yl)-[1,2,4]triazine], the IC50 was less than 100 nM.

In the case of `Cc1n[nH]c2ccc(-c3nncc(N4CCN5CCCC5C4)n3)cc12` (stereo not drawn) [Compound 29, 5-(1,4-diazabicyclo[4.3.0]non-1-yl)-3-(3-methylindazol-5-yl)-[1,2,4]triazine], the half-inhibitory concentration (IC50) was greater than 1000 nM.

As to `Cc1n[nH]c2ccc(-c3nncc(N4CCN5CCCCC5C4)n3)cc12` (stereo not drawn) [Compound 30, 5-(1,4-diazabicyclo[4.4.0]dec-1-yl)-3-(3-methylindazol-5-yl)-[1,2,4]triazine], the IC50 was greater than 1000 nM.

Regarding `Cc1n[nH]c2ccc(-c3nnc(Cl)c(N4CCN5CCCC5C4)n3)cc12` (stereo not drawn) [Compound 31, 6-chloro-5-(1,4-diazabicyclo[4.3.0]non-1-yl)-3-(3-methylindazol-5-yl)-[1,2,4]triazine], the 50% inhibitory concentration (IC50) is greater than 1000 nM.

As to `Cc1n[nH]c2ccc(-c3nnc(Cl)c(N4CCN5CCCCC5C4)n3)cc12` (stereo not drawn) [Compound 32], the IC50 was greater than 1000 nM.

Regarding `Cc1n[nH]c2ccc(-c3nncc(N4CCCC(N)C4)n3)cc12` (stereo not drawn) [Compound 33, 5-(3-aminopiperidin-1-yl)-3-(3-methylindazol-5-yl)-[1,2,4]triazine], the IC50 is 100 to 1000 nM.

Consider `Cc1n[nH]c2ccc(-c3nnc(Cl)c(N4CCCC(N)C4)n3)cc12` (stereo not drawn) [Compound 34, 5-(3-aminopiperidin-1-yl)-6-chloro-3-(3-methylindazol-5-yl)-[1,2,4]triazine], for which the IC50 fell in the range of 100 to 1000 nM.

Consider `Cc1n[nH]c2ccc(-c3nncc(N4CCCC(CN)C4)n3)cc12` (stereo not drawn) [Compound 35, 5-(3-aminmethylopiperidin-1-yl)-3-(3-methylindazol-5-yl)-[1,2,4]triazine], for which the concentration for half-maximal inhibition (IC50) was greater than 1000 nM.

For `Cc1n[nH]c2ccc(-c3nnc(Cl)c(N4CCCC(CN)C4)n3)cc12` (stereo not drawn) [Compound 36, 5-(3-aminmethyiopiperidin-1-yl)-6-chloro-3-(3-methylindazol-5-yl)-[1,2,4]triazine], the IC50 lay within 100 to 1000 nM.

On to `Cc1n[nH]c2ccc(-c3nncc(N4CCC(N)C4)n3)cc12` (stereo not drawn) [Compound 37, 5-(3-aminopyrrolidin-1-yl)-3-(3-methylindazol-5-yl)-[1,2,4]triazine], for which the 50% inhibitory concentration (IC50) was 100 to 1000 nM.

As for `Cc1n[nH]c2ccc(-c3nnc(Cl)c(N4CCC(N)C4)n3)cc12` (stereo not drawn) [Compound 38, 5-(3-aminopyrrolidin-1-yl)-6-chloro-3-(3-methylindazol-5-yl)-[1,2,4]triazine], the IC50 is less than 100 nM.

Regarding `COC(=O)C1CN(c2cnnc(-c3ccc4[nH]nc(C)c4c3)n2)CCN1` (stereo not drawn) [Compound 39], the IC50 was greater than 1000 nM.

Take `COC(=O)C1CN(c2nc(-c3ccc4[nH]nc(C)c4c3)nnc2Cl)CCN1` (stereo not drawn) [Compound 40]: the IC50 was greater than 1000 nM.

On to `Cc1n[nH]c2ccc(-c3nncc(N4CCNC5(CCCC5)C4)n3)cc12` [Compound 41, 5-(6,9-diaza-spiro[4.5]dec-9-yl)-3-(3-methylindazol-5-yl)-[1,2,4]triazine], for which the IC50 fell in the range of 100 to 1000 nM.

For `Cc1n[nH]c2ccc(-c3nncc(N4CCN[C@H](c5ccccc5)C4)n3)cc12` [Compound 42, 3-(3-methylindazol-5-yl)-5-[(R)-3-phenylpiperazin-1-yl]-[1,2,4]triazine], the half-inhibitory concentration (IC50) fell in the range of 100 to 1000 nM.

`Cc1n[nH]c2ccc(-c3nnc(Cl)c(N4CCN[C@H](c5ccccc5)C4)n3)cc12` [Compound 43, 6-chloro-3-(3-methylindazol-5-yl)-5-[(R)-3-phenylpiperazin-1-yl]-[1,2,4]triazine]: the 50% inhibitory concentration (IC50) was 100 to 1000 nM.

On to `Cc1n[nH]c2ccc(-c3nncc(N4CCNC5(CCCCC5)C4)n3)cc12` [Compound 44, 5-(1,4-diaza-spiro[5.5]undec-4-yl)-3-(3-methylindazol-5-yl)-[1,2,4]triazine], for which the IC50 was less than 100 nM.

Consider `Cc1n[nH]c2ccc(-c3nncc(N4CCNC(Cc5ccc(F)cc5)C4)n3)cc12` (stereo not drawn) [Compound 45, 5-[3-(4-fluorobenzyl)piperazin-1-yl]-3-(3-methylindazol-5-yl)-[1,2,4]triazine], for which the concentration for half-maximal inhibition (IC50) is less than 100 nM.

`Cc1n[nH]c2ccc(-c3nncc(N4CCNCC4)n3)cc12` [Compound 46, 3-(3-methylindazol-5-yl)-5-(piperazin-1-yl)-[1,2,4]triazine]: the IC50 fell in the range of 100 to 1000 nM.

For the molecule `Cc1n[nH]c2ccc(-c3nncc(N4CCNC(Cc5cccc(F)c5)C4)n3)cc12` (stereo not drawn) [Compound 47, 5-[3-(3-fluorobenzyl)piperazin-1-yl]-3-(3-methylindazol-5-yl)-[1,2,4]triazine], the IC50 is less than 100 nM.

As for `Cc1n[nH]c2ccc(-c3nncc(N4CCNC(Cc5ccccc5F)C4)n3)cc12` (stereo not drawn) [Compound 48, 5-[3-(2-fluorobenzyl)piperazin-1-yl]-3-(3-methylindazol-5-yl)-[1,2,4]triazine], the IC50 is less than 100 nM.

For the molecule `c1ccc(CNc2nnc(-c3ccc4[nH]nc(-c5ccccc5)c4c3)nc2N2CCNCC2)cc1` [Compound 53, 6-Benzylamino-3-(3-phenylindazol-5-yl)-5-(piperazin-1-yl)-[1,2,4]triazine], the IC50 was greater than 1000 nM.

Turning to `Cc1n[nH]c2ccc(-c3nncc(N4CCNC(Cc5ccccc5)(Cc5ccccc5)C4)n3)cc12` [Compound 54, 5-(3,3-dibenzylpiperazin-1-yl)-3-(3-methylindazol-5-yl)-[1,2,4]triazine], the IC50 lay in the range of 100 to 1000 nM.

As for `c1ccc(C[C@H]2CN(c3cnnc(-c4ccc5[nH]ncc5c4)n3)CCN2)cc1` [Compound 55, 5-[(S)-3-benzylpiperazin-1-yl]-3-indazol-5-yl-[1,2,4]triazine], the concentration for half-maximal inhibition (IC50) is less than 100 nM.

For `Clc1n[nH]c2ccc(-c3nncc(N4CCN[C@@H](Cc5ccccc5)C4)n3)cc12` [Compound 56, 5-[(S)-3-benzylpiperazin-1-yl]-3-(3-chloroindazol-5-yl)-[1,2,4]triazine], the concentration for half-maximal inhibition (IC50) was less than 100 nM.

Take `Cc1n[nH]c2ccc(-c3nncc(N4CCNC(Cc5cccnc5)C4)n3)cc12` (stereo not drawn) [Compound 57, 3-(3-Methylindazol-5-yl)-5-[3-(pyridin-3-ylmethyl)piperazin-1-yl]-[1,2,4]triazine]: the IC50 was in the range of 100 to 1000 nM.

With `Cc1n[nH]c2ccc(-c3nncc(N4CCNC(Cc5ccccn5)C4)n3)cc12` (stereo not drawn) [Compound 58, 3-(3-methylindazol-5-yl)-5-[3-(pyridin-2-ylmethyl)piperazin-1-yl]-[1,2,4]triazine], the IC50 was greater than 1000 nM.

Consider `Cc1n[nH]c2ccc(-c3nncc(N4CCCC(Cc5ccccc5)C4)n3)cc12` (stereo not drawn) [Compound 59, 5-(3-benzylpiperidin-1-yl)-3-(3-methylindazol-5-yl)-[1,2,4]triazine], for which the IC50 was 100 to 1000 nM.

Regarding `Cc1n[nH]c2ccc(-c3nncc(N4CCN(CCO)[C@@H](Cc5ccccc5)C4)n3)cc12` [Compound 60, 5-[(S)-3-benzyl-4-hydroxyethyl-piperazin-1-yl]-3-(3-methylindazol-5-yl)-[1,2,4]triazine], the IC50 was 100 to 1000 nM.

`CC(C)C[C@H]1CN(c2cnnc(-c3ccc4[nH]ncc4c3)n2)CCN1` [Compound 61, 3-indazol-5-yl-5-[(S)-3-isobutylpiperazin-1-yl]-[1,2,4]triazine]: the IC50 was less than 100 nM.

For `CCOC(=O)C1(Cc2ccccc2)CCCN(c2cnnc(-c3ccc4[nH]nc(C)c4c3)n2)C1` (stereo not drawn) [Compound 62, 5-(3-benzyl-3-ethoxycarbonylpiperidin-1-yl)-3-(3-methylindazol-5-yl)-[1,2,4]triazine], the IC50 was in the range of 100 to 1000 nM.

For `Cc1n[nH]c2ccc(-c3nncc(N4CCCC(CO)(Cc5ccccc5)C4)n3)cc12` (stereo not drawn) [Compound 63], the 50% inhibitory concentration (IC50) fell in the range of 100 to 1000 nM.

Source of the values: patent US7528132B2, “Kinase inhibitors” (Schering Corporation, priority 2005, dated 2009).
